Columns and labels:
[1] = system: TRP-1, TRP-2, and tyrosinase mRNA in B16F10 cells; assay: qRT-PCR of melanogenesis-related genes; format: cell-based, murine; conditions: 24 h; GAPDH internal control; versus untreated controls
Method: Total RNAs from cells were extracted using the RiboEx Total RNA solution (GeneAll Biotechnology, Seoul, Korea). Cells in 6-well plates (0.5 mL, 1 × 10^5 cells per well) were transferred to tubes, to which chloroform (0.1 mL) was added, and shaken vigorously for 30 s. Aqueous phases were transferred to fresh tubes, and an equal volume of isopropanol was added. Samples were then incubated for 15 min at 4 °C and centrifuged at 12,000× g for 15 min at 4 °C. After discarding the supernatants, RNA pellets were washed once with 0.5 mL of 75% ethanol, vortexed briefly, and centrifuged at 7500× g for 5 min at 4 °C. Pellets were dried for 10–15 min and dissolved in diethyl pyrocarbonate (DEPC)-treated water. Complementary DNA (cDNA) was synthesized from the total RNA (2 µg) using SuPrime Script RT Premix with random hexamer cDNA Synthesis Kit (GeNet Bio, Daejeon, Korea), in accordance with the manufacturers’ instructions. Quantitative qRT-PCR amplification was performed using SensiFAST^TM SYBR® No-ROX dye (Bioline, London, UK) on the CFX Connect System (Bio-Rad Laboratories, Hercules, CA, USA). The primers specific to TRP-1, TRP-2, tyrosinase, or GAPDH were purchased from Bioneer Inc. (Daejeon, Korea). Relative gene expressions were assessed using GAPDH as the internal control.

[2] = DPPH radical scavenging activity assay; conditions: compound 1.0 mM, 30 min in the dark, 517 nm
Method: The DPPH (2,2-diphenyl-1-picrylhydrazyl) scavenging activities of synthesized compounds 1a–1p were investigated as previously described, with minor modifications. A dimethyl sulfoxide solution (20 µL) containing 10 mM of each compound was mixed with DPPH methanol solution (0.2 mM, 180 µL) in the wells of a 96-well plate, and placed in the dark for 30 min at room temperature. At 517 nm, optical densities were measured using a microplate reader (VersaMax^TM, Molecular Devices, Sunnyvale, CA, USA). The DPPH radical scavenging ability of the 2-arylbenzothiazole derivatives was compared with that of L-ascorbic acid, the positive control. All experiments were performed independently in triplicate.

[3] = ABTS radical scavenging activity assay; conditions: 100 µM, 2 min in the dark
Method: At 734 nm, optical densities of the solutions were measured using a microplate reader (VersaMax^TM, Molecular Devices, Sunnyvale, CA, USA). The ABTS radical scavenging capacities of the 16 2-arylbenzothiazole derivatives were compared with trolox. All experiments were performed independently in triplicate.

## Oc1ccc(-c2nc3cc(C(F)(F)F)ccc3s2)c(O)c1 [Compound 1b, 4-(5-(Trifluoromethyl)benzo[d]thiazol-2-yl)benzene-1,3-diol]
[1]
  mRNA expression levels of the three MITF target genes (TRP-1, TRP-2, tyrosinase): significantly and concentration-dependently suppressed
[2]
  DPPH radical scavenging activity: moderate DPPH radical scavenging efficacy
[3]
  ABTS radical scavenging activity (in words): potently scavenged the ABTS radical
[3]; 734 nm
  ABTS free radical scavenged (%): 75%
